This note sets out measurements from patent publication US20020049157A1, “Use of proteasome inhibitors for treating cancer, inflammation, autoimmune disease, graft rejection and septic shock” (priority 1998, published 2002).

The subject of one assay is nitric oxide synthase. In words: Northern blot of nitric oxide synthase expression in macrophages. The format is cell-based, mouse. The conditions noted are these: 2 μg/ml LPS. Here is the method:
Nitric oxide synthase expression was measured with Northern blot analysis.
BALB/c mice were injected i.p. with 3 ml of 3% thioglycollate broth. Three days later, peritoneal exudate macrophages of the mice were harvested and washed at 170 g for 10 min at 4° C. […]
The expression of inducible nitric oxide synthase at the mRNA level was analyzed by Northern blot as described in our previous publication (Shan et al., 1994, supra). After an overnight culture, the mouse macrophages were harvested and their total cellular RNA was extracted with the guanidine/CsCl method. The RNA (10 μg/lane) was resolved in 1% agarose-formaldehyde gels and blotted onto nylon membranes. A 562-bp fragment corresponding to the mouse iNOS cDNA (Xie et al., 1992, Science 256:225) was obtained by reverse transcription/PCR using the mouse macrophages total RNA as templates. The fragment was labeled with ^32p with random primers and used as a probe for the Northern blot.

The subject of a further assay is Bax, Bak and Bad. Briefly: Immunoblotting of Bax, Bak and Bad in Jurkat cells. The class given is cell-based. The following applies: lactacystin 6 μM. Here is the method: Jurkat cells were treated with lactacystin (6 μM) for 5 h (lanes 2 and 4 of panel A), 4 h (lane 2 of panel B) or 7 h (lane 3 of panel B), lane 1 in panels A and B is untreated control samples. The cells were separated into mitochondrial (mito in panel A and mitochondria in panel B) and cytosolic (cytosol in panel A) fractions, and the lysate of these two fractions analyzed by immunoblotting using goat anti-Bik, and rabbit anti-Bax, Bak and Bad Ab (all from Santa Cruz Biotech, Santa Cruz, Calif.) followed by enhanced chemiluminescence (ECL, kit from Amersham).

The test system of another assay is cyclin A. In words: Immunoblotting of cyclin A level in T cells. The class given is cell-based, human. The conditions noted are these: PHA plus hydroxyurea block, released; LAC added at release. On the procedure: Tonsillar T cells were stimulated with PHA (2 μg/ml) for 40 h in the presence of hydroxyurea (1 mM), and these cells were blocked at the G1/S boundary (G1 block). The synchronization was released by washing out hydroxyurea, and the cells were recultured in medium containing 2 μg/ml PHA in the absence or presence of LAC ([…], added once at the time of the release). The cells were harvested at 6 h and 22 h post the G1/S block. The cell lysates (40 μg/sample) were resolved in 10% SDS-PAGE, and transferred to PVDF membranes. The membranes were hybridized with rabbit-anti-Cyclin E or anticyclin A antisera followed by ^125I-protein A. The Cyclin E level (FIG. 8A) and cyclin A level (FIG. 8B) of representative experiments are shown. Similar results were obtained in a total of three independent experiments.
The G1/S phase synchronized T cells represented activated cells, and prolonged exposure to LAC would cause significant cell death.
Tonsillar T cells were cultured in the presence of 2 μg/ml PHA and 1 mM hydroxyurea for 40 h. The cells thus treated were synchronized at the G1/S phase. […]
(§1) Immunoblotting was employed to evaluate the levels of Cyclin E, cyclin A, p21^Cip1 and p27^Kip1. […] The cleared lysates were quantitated for protein concentrations. […] The signals on the membrane were detected by [^125I]-protein A followed by autoradiography.

Another assay deals with p27^Kip1. In words: Immunoblotting of p27Kip1 level in T cells. The class given is cell-based, human. The following applies: PHA, LAC 10 μM added once at 0 h. On the procedure:
Tonsillar T cells were stimulated with PHA (2 μg/ml) for 16 h, 40 or 64 h in the absence or presence of LAC (10 μM). For the 16 h and 40 h culture, LAC was added once at 0 h. For the 64 h culture, LAC was added once at 40 h. The cell lysates were resolved in 10% SDS-PAGE, and blotted onto PVDF membranes. The membranes were hybridized with rabbit anti-p27^Kip1 antisera (FIG. 9A) or with anti-p21^Cip1 antisera (FIG. 9B) followed by ^125-protein A. The experiments were performed three times, and similar results were obtained. Representative data is shown.
In addition to the cyclin levels, the CDK activities are also controlled by several low molecular weight inhibitors. We have examined in this study the effect of the proteasome on the CDK inhibitors p27^Kip1 (Hall et al., 1995, supra) and p21^Cip1 (el-Deiry et al., 1993, Cell 75:817). […] This is in agreement with previous reports (Hengst et al., 1996, Science 271:1861; Nourse et al., 1994, Nature 372:570). […] The blockage was less obvious when assayed at 40 h, probably because the gradual loss of LAC activity during the 40 h culture. […]
as §1

`CC(=O)N[C@@H](CSC(=O)[C@]1([C@@H](O)C(C)C)NC(=O)[C@H](C)[C@@H]1O)C(=O)O` [LAC, lactacystin]: the “expression of mRNA for NO synthase” value in the assay with nitric oxide synthase is on record as “decreases the expression of mRNA for NO synthase”. Also, the “amounts of Bax, Bak and Bad” value with Bax, Bak and Bad is reported as “does not appear to have altered”. Besides, in the assay with cyclin A, the “cyclin A level during the S phase” value is recorded as “did not affect the level”. In the assay with p27^Kip1 (assayed at 16 h), the “decrease (degradation) of p27Kip1” value is recorded as “significantly blocked the decrease”. The “blockage of p27Kip1 decrease” value in the assay with p27^Kip1 (assayed at 40 h) was “less obvious”.
